Read-outs that look alike come from different tables or passages of the source. Blank lines part the entries; values can stand above or below the compound they belong to.
Assays:
[1] = tested on: unilateral vestibular dysfunction induced by intratympanic kainic injection; test: Kainate model of peripheral excitotoxic vestibular injury: spontaneous nystagmus and roll angle deviation; format: in vivo, female Long-Evans; settings: 5.6 mg/kg intraperitoneal daily for 3 days
Method: The capacity of (+)-azasetron besylate to protect against lesions in the peripheral vestibular system was assessed using the kainate model of peripheral excitotoxic injury. Following unilateral, transtympanic injection of the excitotoxic kainic acid leading to the swelling, retraction and uncoupling of synapses between vestibular sensory hair cells and primary afferent neurons, baseline recordings of spontaneous nystagmus (pathological eye movements caused by a deficit of the vestibuloculomotor reflex) and postural deviations are performed before randomization to treatment groups. Recordings were repeated daily for 3 days, then again at D6 and D13 after lesion induction.
Following lesion induction and baseline recordings at t=1h, female Long-Evans were randomized to receive intraperitoneal injections of placebo (n=18) or 5.6 mg/kg (+)-azasetron besylate daily for 3 days (t=1/24/[…]). Recording of spontaneous nystagmus and postural deviations were repeated at 2/4/6/24/25/48/49 hours and D6/D13 after initial lesion induction (FIG. 9).

[2] = tested on: cochlear outer hair cells (OHC); test: Outer hair cell survival after cisplatin (cochleograms from whole-mount fixed cochleae); format: in vivo, female Wistar rats; settings: 14 days of treatment after cisplatin
Method: Two days after baseline audiometry (ABR and DPOAE measurements), oral treatment was initiated in both groups 15 minutes before 8 mg/kg cisplatin infusion during 30 minutes under isoflurane anesthesia. On D14, ABR and DPOAE measurements were performed to evaluate ABR threshold shifts and DPOAE amplitude loss relative to baseline and the temporal bones of each animal were subsequently preserved with PFA fixation for histology (FIG. 5).
To evaluate the effect of (+) azasetron on outer hair cells (OHC) survival after cisplatin administration at an ototoxic dose, cochleograms of surviving OHCs were constructed from whole-mount fixed cochleae.

[3] = Pharmacokinetics study: exposure in inner ear, perilymph and tail plasma after single oral dose; format: in vivo, Wistar rats; settings: for AUC: po, 10 mg/kg, 10 mg/kg p.o., per-interval AUC of azasetron free-base
Excerpt: The 72 male Wistar rats received on 28 Jan. 2016 from Janvier (Janvier, Le Genest-St-Isle) were assigned to the study. They were divided in 3 groups of 24 animals each, one group per test article. Each group was divided in […] subgroups according to the 6-termination time-points.
72 Wistar rats were subjected to oral single dose administration of the test article, racemic azasetron hydrochloride, azasetron hydrochloride (+) or azasetron hydrochloride (−), and sacrificed at different time-points to assess the exposure of the test article in the inner ear, perilymph, and plasma. • Group racemic azasetron: 24 male Wistar, 4 rats per time-point: 10 mg/kg azasetron HCl dissolved in NaCl 0.9%. Administrated as 5 mL/kg p.o.; • Group azasetron (+): 24 male Wistar, 4 rats per time-point: 10 mg/kg (+)-azasetron HCl dissolved in NaCl 0.9%. Administrated as 5 mL/kg p.o.; • Group azasetron (−): 24 male Wistar, 4 rats per time-point: 10 mg/kg (−)-azasetron HCl dissolved in NaCl 0.9%. Administrated as 5 mL/kg p.o.
There were 6 termination time-points for each test article. At time-points 15/30/60/120/240/480 minutes after administration: peripheral plasma from the tail was sampled. The animals were sacrificed by i.v. administration of 0.25 mL/rat of a 160 mg/mL pentobarbital solution. Following sacrifice, the heart blood and both tympanic bullas (left and right) were sampled.
Both tympanic bullas (left and right) were collected, however, only the left one was used for the perilymph and inner ear analysis. The right bulla was stored at −20° C. for future needs when required. For animal IDs 1 and 4, the right bulla was used for the sampling of perilymph and inner ear.
The left bulla was dissected fresh. Briefly, the bulla was opened via the auditory opening to reveal the bone surrounding the cochlea after which the tip of the bone was removed with forceps and a 10 μL pipette tip was inserted to withdraw perilymph.
Upon exposure of the tip of the cochlea, 2 μL of perilymph (fluid) could be recovered from the bulla. The perilymph was brought to 10 μL by the addition of 8 μL water, and then extract via the addition of 30 μL of acetonitrile. After that, the samples were centrifuged and the supernatant was transferred to a glass vial appropriate for the HPLC-MS auto-sampler.
Following recovering of the perilymph, the bones of the inner ear and cochlea components were removed with fine forceps and added to a tared Eppendorf tube. The collection was weighed and brought to 10 mg with the addition of water and placed on ice until extraction. 30 μL of acetonitrile was added and the tubes were incubated in an ultrasound bath, after which they were centrifuged and the supernatant was transferred to a glass vial appropriate for the HPLC-MS auto-sampler. In the process or removing the bones of the inner ear, they were finely distributed in the media and broken by forceps. (Due to the very low volume of the tissue and its fine structure, separate grinding is considered risky vs the potential losses to plastic and media. The materials are very fine in nature and the bone particles are small thus providing only short interfaces to media. The absence of fat and the incubation in solvent is intended to provide sufficient solubility of active ingredient).
The acetonitrile used in the sample preparation for bio-analysis contained the internal standard for the HPLC-MS analysis.
30 μL acetonitrile including the internal standard were added to each 10 μL plasma sample. After adding the acetonitrile, the samples were mixed by vortex and further centrifuged. The supernatant was transferred to a glass vial appropriate for the HPLC-MS auto-sampler.
The LC system comprised an Agilent 1260 liquid chromatography equipped with a binary pump and a column oven, together with a PAL HTS-xt auto-sampler. It is linked to the AB SCIEX TRIPLE QUADTM 4500 (triple-quadrupole) instrument with an ESI interface and a switching valve integrated (Mass spectrometric analysis). […]

SMILES: CN1C(=O)COc2c(C(=O)NC3CN4CCC3CC4)cc(Cl)cc21.O=S(=O)(O)c1ccccc1 (single isomer, unassigned; (+)) [(+)-azasetron besylate]
improvement (reduction) of roll angle deviation (postural head tilt) versus placebo ([1]; p<0.001): 30-62%
improvement of spontaneous nystagmus versus placebo ([1]; p=0.048): 6-48%
conservation of OHCs in the basal turn of the cochlea versus placebo [2]: up to 11 fold
number of surviving OHCs versus placebo ([2]; p<0.001): significantly higher

Total AUC Inner ear ([3]; 10 mg/kg p.o. single dose): 27829 nM·min
Total AUC Perilymph ([3]; 10 mg/kg p.o. single dose): 11901 nM·min
Total AUC Tail plasma ([3]; 10 mg/kg p.o. single dose): 65448 nM·min
concentration at 15 min ([3]; male, Wistar, rat, inner ear, oral, 10 mg/kg p.o. single dose, Time 15 (min), read-out: Average Inner ear concentration (ng azasetron free-base/g tissue)): 29 ng/g
concentration at 30 min ([3]; male, Wistar, rat, inner ear, oral, 10 mg/kg p.o. single dose, Time 30 (min), read-out: Average Inner ear concentration (ng azasetron free-base/g tissue)): 27 ng/g
concentration at 60 min ([3]; male, Wistar, rat, inner ear, oral, 10 mg/kg p.o. single dose, Time 60 (min), read-out: Average Inner ear concentration (ng azasetron free-base/g tissue)): 8 ng/g
concentration at 120 min ([3]; male, Wistar, rat, inner ear, oral, 10 mg/kg p.o. single dose, Time 120 (min), read-out: Average Inner ear concentration (ng azasetron free-base/g tissue)): 46 ng/g
concentration at 240 min ([3]; male, Wistar, rat, inner ear, oral, 10 mg/kg p.o. single dose, Time 240 (min), read-out: Average Inner ear concentration (ng azasetron free-base/g tissue)): 21 ng/g
concentration at 480 min ([3]; male, Wistar, rat, inner ear, oral, 10 mg/kg p.o. single dose, Time 480 (min), read-out: Average Inner ear concentration (ng azasetron free-base/g tissue)): 3 ng/g
AUC ([3]; male, Wistar, rat, inner ear, Time 15 (min), read-out: Inner ear AUC (converted)): 0.0102 µM·h
AUC ([3]; male, Wistar, rat, inner ear, Time 30 (min), read-out: Inner ear AUC (converted)): 0.0198 µM·h
AUC ([3]; male, Wistar, rat, inner ear, Time 60 (min), read-out: Inner ear AUC (converted)): 0.0247 µM·h
AUC ([3]; male, Wistar, rat, inner ear, Time 120 (min), read-out: Inner ear AUC (converted)): 0.0772 µM·h
AUC ([3]; male, Wistar, rat, inner ear, Time 240 (min), read-out: Inner ear AUC (converted)): 0.193 µM·h
AUC ([3]; male, Wistar, rat, inner ear, Time 480 (min), read-out: Inner ear AUC (converted)): 0.139 µM·h
AUC ([3]; male, Wistar, rat, perilymph, Time 15 (min), read-out: Perilymph AUC (converted)): 0.00507 µM·h
AUC ([3]; male, Wistar, rat, perilymph, Time 30 (min), read-out: Perilymph AUC (converted)): 0.0102 µM·h
AUC ([3]; male, Wistar, rat, perilymph, Time 60 (min), read-out: Perilymph AUC (converted)): 0.015 µM·h
AUC ([3]; male, Wistar, rat, perilymph, Time 120 (min), read-out: Perilymph AUC (converted)): 0.0363 µM·h
AUC ([3]; male, Wistar, rat, perilymph, Time 240 (min), read-out: Perilymph AUC (converted)): 0.0747 µM·h
AUC ([3]; male, Wistar, rat, perilymph, Time 480 (min), read-out: Perilymph AUC (converted)): 0.0571 µM·h
AUC ([3]; male, Wistar, rat, tail plasma, Time 15 (min), read-out: Tail plasma AUC (converted)): 0.0203 µM·h
AUC ([3]; male, Wistar, rat, tail plasma, Time 30 (min), read-out: Tail plasma AUC (converted)): 0.034 µM·h
AUC ([3]; male, Wistar, rat, tail plasma, Time 60 (min), read-out: Tail plasma AUC (converted)): 0.0515 µM·h
AUC ([3]; male, Wistar, rat, tail plasma, Time 120 (min), read-out: Tail plasma AUC (converted)): 0.17 µM·h
AUC ([3]; male, Wistar, rat, tail plasma, Time 240 (min), read-out: Tail plasma AUC (converted)): 0.416 µM·h
AUC ([3]; male, Wistar, rat, tail plasma, Time 480 (min), read-out: Tail plasma AUC (converted)): 0.4 µM·h
SMILES: CN1C(=O)COc2c(C(=O)N[C@@H]3CN4CCC3CC4)cc(Cl)cc21 [(−)-azasetron]
